Data published in PubChem BioAssay (NCI).
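The compound was tested at five concentrations on cells cultured in 96-well plates, with a 48-hour exposure period. TGI is the concentration that stops growth completely.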 *1 amine or outer side, *2 acyl side, *3 side chain or, on linkers, in order; H or OH if unused. Where a SMILES comes first, the peptide text is derived from it. Bridges are numbered along the chain shown (N, C = ends). Roman numbers before positions name the chains, in order. [ ]: non-standard residue; d: D form. Actinocin(9to1) = Cc1c2oc3c(C)ccc(C(=O)[*:1])c3nc-2c(C(=O)[*:2])c(N)c1=O; NMeV = CN[CH](C(=O)O)C(C)C; Sar = CNCC(=O)O

Tests used:
Test in all cases: DTP human tumour cell line panel, 48 h
[1] = system: SNB-75 CNS
[2] = system: HCT-15 colon
[3] = system: KM12 colon
[4] = system: OVCAR-3 ovarian
[5] = system: TK-10 renal
[6] = system: A549 NSCLC
[7] = system: OVCAR-4 ovarian
[8] = system: SF-295 CNS
[9] = system: OVCAR-8 ovarian
[10] = system: DU-145 prostate
[11] = system: MDA-MB-231 breast
[12] = system: HOP-62 NSCLC
[13] = system: CAKI-1 renal
[14] = system: HS 578T breast
[15] = system: SK-MEL-5 melanoma
[16] = system: SW-620 colon
[17] = system: MALME-3M melanoma
[18] = system: EKVX NSCLC
[19] = system: SN12C renal
[20] = system: A498 renal
[21] = system: T-47D breast
[22] = system: M14 melanoma
[23] = system: IGROV1 ovarian
[24] = system: UACC-62 melanoma
[25] = system: UO-31 renal
[26] = system: HL-60(TB) leukemia
[27] = system: NCI-H522 lung
[28] = system: NCI/ADR-RES ovarian
[29] = system: COLO 205 colon
[30] = system: SK-MEL-28 melanoma
[31] = system: UACC-257 melanoma
[32] = system: MCF7 breast
[33] = system: U251 CNS
[34] = system: SK-OV-3 ovarian
[35] = system: 786-0 renal
[36] = system: HCC-2998 colon
[37] = system: K-562 leukemia
[38] = system: PC-3 prostate
[39] = system: HCT-116 colon
[40] = system: MDA-N
[41] = system: RXF 393 renal
[42] = system: RPMI-8226 leukemia
[43] = system: SF-268 CNS
[44] = system: SK-MEL-2 melanoma
[45] = system: OVCAR-5 ovarian
[46] = system: SF-539 CNS
[47] = system: HT29 colon
[48] = system: LOX IMVI melanoma
[49] = system: MDA-MB-435
[50] = system: ACHN renal
[51] = system: NCI-H226 lung
[52] = system: SNB-19 CNS
[53] = system: NCI-H23 lung
[54] = system: NCI-H460 lung
[55] = system: CCRF-CEM leukemia
[56] = system: SR leukemia
[57] = system: HOP-92 NSCLC
[58] = system: MOLT-4 leukemia

Question: Which TGI [1] does the source give for Cc1c2oc3c(C)ccc(C(=O)NC4C(=O)NC(Cc5ccc(O)cc5)C(=O)N5CCCC5C(=O)N(C)CC(=O)N(C)C(C(C)C)C(=O)OC4C)c3nc-2c(C(=O)NC2C(=O)NC(Cc3ccc(O)cc3)C(=O)N3CCCC3C(=O)N(C)CC(=O)N(C)C(C(C)C)C(=O)OC2C)c(N)c1=O (stereo not given) (I: TYP[Sar][NMeV] / II: TYP[Sar][NMeV]; ester I:1-I:C, II:1-II:C; linker I:N-II:N via Actinocin(9to1); configuration not given here) here?
Answer: The TGI was 20.3 µM.

Question: What about the TGI [2] of the same molecule?
Answer: Its TGI is > 100 µM.

Question: And the TGI [3]?
Answer: The TGI was > 100 µM.

Question: And the TGI [4]?
Answer: Its TGI is > 48.1 µM.

Question: What about the TGI [5] of the same molecule?
Answer: The TGI was > 80.3 µM.

Question: What about the TGI [6] of the same molecule?
Answer: The TGI was > 100 µM.

Question: And the TGI [7]?
Answer: Its TGI is > 42.1 µM.

Question: And the TGI [8]?
Answer: The TGI was > 54.6 µM.

Question: And the TGI [9]?
Answer: Its TGI is > 100 µM.

Question: And the TGI [10]?
Answer: Its TGI is > 72.7 µM.

Question: What about the TGI [11] of the same molecule?
Answer: The TGI was > 66.9 µM.

Question: What about the TGI [12] of the same molecule?
Answer: The TGI was > 52.2 µM.

Question: What about the TGI [13] of the same molecule?
Answer: The TGI was 27.5 µM.

Question: And the TGI [14]?
Answer: The TGI was 67.3 µM.

Question: And the TGI [15]?
Answer: The TGI was > 86.1 µM.

Question: And the TGI [16]?
Answer: Its TGI is > 100 µM.

Question: And the TGI [17]?
Answer: The TGI was 44.3 µM.

Question: And the TGI [18]?
Answer: Its TGI is > 100 µM.

Question: What about the TGI [19] of the same molecule?
Answer: Its TGI is > 100 µM.

Question: What about the TGI [20] of the same molecule?
Answer: Its TGI is 56.1 µM.

Question: What about the TGI [21] of the same molecule?
Answer: The TGI was > 79.9 µM.

Question: What about the TGI [22] of the same molecule?
Answer: The TGI was 28.9 µM.

Question: And the TGI [23]?
Answer: Its TGI is 32.6 µM.

Question: What about the TGI [24] of the same molecule?
Answer: Its TGI is > 67 µM.

Question: What about the TGI [25] of the same molecule?
Answer: The TGI was > 61.4 µM.

Question: And the TGI [26]?
Answer: Its TGI is > 76.2 µM.

Question: And the TGI [27]?
Answer: Its TGI is 45.8 µM.

Question: And the TGI [28]?
Answer: The TGI was > 100 µM.

Question: And the TGI [29]?
Answer: Its TGI is > 100 µM.

Question: What about the TGI [30] of the same molecule?
Answer: The TGI was > 87 µM.

Question: And the TGI [31]?
Answer: The TGI was > 100 µM.

Question: And the TGI [32]?
Answer: Its TGI is 14.6 µM.

Question: And the TGI [33]?
Answer: Its TGI is > 48.7 µM.

Question: What about the TGI [34] of the same molecule?
Answer: The TGI was > 100 µM.

Question: What about the TGI [35] of the same molecule?
Answer: The TGI was > 74.9 µM.

Question: What about the TGI [36] of the same molecule?
Answer: The TGI was > 100 µM.

Question: What about the TGI [37] of the same molecule?
Answer: The TGI was > 100 µM.

Question: And the TGI [38]?
Answer: The TGI was > 100 µM.

Question: What about the TGI [39] of the same molecule?
Answer: The TGI was > 100 µM.

Question: And the TGI [40]?
Answer: The TGI was > 100 µM.

Question: And the TGI [41]?
Answer: Its TGI is > 57.3 µM.

Question: What about the TGI [42] of the same molecule?
Answer: Its TGI is > 100 µM.

Question: What about the TGI [43] of the same molecule?
Answer: Its TGI is > 100 µM.

Question: What about the TGI [44] of the same molecule?
Answer: The TGI was > 43.6 µM.

Question: What about the TGI [45] of the same molecule?
Answer: The TGI was > 43.8 µM.

Question: And the TGI [46]?
Answer: Its TGI is > 100 µM.

Question: What about the TGI [47] of the same molecule?
Answer: The TGI was > 100 µM.

Question: And the TGI [48]?
Answer: Its TGI is 19.9 µM.

Question: And the TGI [49]?
Answer: The TGI was > 100 µM.

Question: What about the TGI [50] of the same molecule?
Answer: Its TGI is > 100 µM.

Question: And the TGI [51]?
Answer: The TGI was > 100 µM.

Question: And the TGI [52]?
Answer: Its TGI is > 56.1 µM.

Question: What about the TGI [53] of the same molecule?
Answer: The TGI was > 79.2 µM.

Question: And the TGI [54]?
Answer: Its TGI is > 100 µM.

Question: COc1ccc(/C=N/N=C(\N)NO)c(OC)c1OC was tested. Which TGI [55] did it give?
Answer: The TGI was 76.1 µM.

Question: What about the TGI [2] of the same molecule?
Answer: The TGI was > 100 µM.

Question: What about the TGI [3] of the same molecule?
Answer: The TGI was 52.9 µM.

Question: And the TGI [4]?
Answer: The TGI was 67.3 µM.

Question: And the TGI [5]?
Answer: Its TGI is > 100 µM.

Question: What about the TGI [6] of the same molecule?
Answer: Its TGI is > 100 µM.

Question: What about the TGI [7] of the same molecule?
Answer: The TGI was > 100 µM.

Question: What about the TGI [8] of the same molecule?
Answer: Its TGI is > 100 µM.

Question: What about the TGI [9] of the same molecule?
Answer: The TGI was 41.9 µM.

Question: And the TGI [10]?
Answer: The TGI was > 100 µM.

Question: And the TGI [56]?
Answer: Its TGI is 74.5 µM.

Question: What about the TGI [11] of the same molecule?
Answer: The TGI was > 100 µM.

Question: What about the TGI [12] of the same molecule?
Answer: Its TGI is > 100 µM.

Question: What about the TGI [13] of the same molecule?
Answer: The TGI was > 100 µM.

Question: What about the TGI [14] of the same molecule?
Answer: Its TGI is > 100 µM.

Question: And the TGI [15]?
Answer: Its TGI is 72 µM.

Question: And the TGI [16]?
Answer: The TGI was > 100 µM.

Question: What about the TGI [17] of the same molecule?
Answer: Its TGI is > 100 µM.

Question: What about the TGI [18] of the same molecule?
Answer: The TGI was > 100 µM.

Question: What about the TGI [19] of the same molecule?
Answer: Its TGI is > 100 µM.

Question: What about the TGI [20] of the same molecule?
Answer: Its TGI is 77.6 µM.

Question: What about the TGI [57] of the same molecule?
Answer: Its TGI is 71.2 µM.

Question: And the TGI [21]?
Answer: The TGI was 90.2 µM.

Question: And the TGI [22]?
Answer: Its TGI is > 100 µM.

Question: What about the TGI [23] of the same molecule?
Answer: Its TGI is > 100 µM.

Question: And the TGI [24]?
Answer: The TGI was > 100 µM.

Question: What about the TGI [25] of the same molecule?
Answer: The TGI was 91.9 µM.

Question: And the TGI [26]?
Answer: Its TGI is 45.8 µM.

Question: And the TGI [27]?
Answer: Its TGI is > 100 µM.

Question: And the TGI [28]?
Answer: The TGI was 35.4 µM.

Question: What about the TGI [29] of the same molecule?
Answer: Its TGI is > 100 µM.

Question: What about the TGI [30] of the same molecule?
Answer: The TGI was > 100 µM.

Question: What about the TGI [32] of the same molecule?
Answer: Its TGI is > 100 µM.

Question: What about the TGI [33] of the same molecule?
Answer: Its TGI is > 100 µM.

Question: And the TGI [34]?
Answer: Its TGI is > 100 µM.

Question: What about the TGI [35] of the same molecule?
Answer: The TGI was > 100 µM.

Question: What about the TGI [36] of the same molecule?
Answer: Its TGI is > 100 µM.

Question: And the TGI [37]?
Answer: The TGI was > 100 µM.

Question: What about the TGI [38] of the same molecule?
Answer: The TGI was > 100 µM.

Question: What about the TGI [39] of the same molecule?
Answer: The TGI was 75.5 µM.

Question: And the TGI [40]?
Answer: Its TGI is > 100 µM.

Question: And the TGI [41]?
Answer: The TGI was > 100 µM.

Question: And the TGI [42]?
Answer: Its TGI is > 100 µM.

Question: And the TGI [43]?
Answer: Its TGI is > 100 µM.

Question: And the TGI [44]?
Answer: Its TGI is > 100 µM.

Question: What about the TGI [45] of the same molecule?
Answer: The TGI was > 100 µM.

Question: What about the TGI [46] of the same molecule?
Answer: Its TGI is 61.7 µM.

Question: What about the TGI [58] of the same molecule?
Answer: Its TGI is > 100 µM.

Question: What about the TGI [47] of the same molecule?
Answer: Its TGI is > 100 µM.

Question: What about the TGI [48] of the same molecule?
Answer: Its TGI is > 100 µM.

Question: What about the TGI [49] of the same molecule?
Answer: The TGI was > 100 µM.

Question: What about the TGI [50] of the same molecule?
Answer: The TGI was 67.2 µM.

Question: What about the TGI [51] of the same molecule?
Answer: The TGI was 74.3 µM.

Question: And the TGI [52]?
Answer: The TGI was > 100 µM.

Question: And the TGI [53]?
Answer: Its TGI is > 100 µM.

Question: What about the TGI [54] of the same molecule?
Answer: The TGI was > 100 µM.
